According to patent publication US20250161501A1, “Radiolabeled Compounds for Imaging of Fibroblast Activation Protein (FAP) and Treatment of FAP-Related Disorders” (Provincial Health Services Authority, priority 2022, published 2025):
Values belong to the compound of their own block, whether it stands above or below them.

Columns and labels:
U87 xenografts = experiment: Ex vivo biodistribution of 68Ga-labeled tracer in U87 tumor-bearing mice; details: U87 tumor model, mean±SD
Experimental: (§1) All imaging and biodistribution studies were performed using male NOD-scidIL2Rg^null (NRG) mice and conducted according to the guidelines established by the Canadian Council on Animal Care and approved by Animal Ethics Committee of the University of British Columbia. For tumor inoculations, mice were anesthetized by inhalation with 2% isoflurane in oxygen and implanted subcutaneously with 7.5×10^6 HEK293T:hFAP or U87 cells below the left shoulder. Imaging and biodistribution studies were performed only after tumors grew to 5-8 mm in diameter.
For ex vivo biodistribution studies, mice were injected with -1-3 MBq of the ^68Ga-labeled tracer. Mice were allowed to recover and roam freely in the cages after injecting the tracer. […] The uptake in each organ/tissue was normalized to the injected dose and expressed as the percentage of the injected dose per gram of tissue (% ID/g). […]

[1] = test system: HEK293T:hFAP tumor xenografts; experiment: Ex vivo biodistribution of 68Ga-labeled tracers in HEK293T:hFAP tumor-bearing mice; details: for Uptake in HEK293T:hFAP tumor xenografts, comparison in words: 68Ga-SB03178 vs 68Ga-FAPI-4, 68Ga-SB04033 vs 68Ga-SB03178
Experimental: as §1
For ex vivo biodistribution studies, mice were injected with -1-3 MBq of the ^68Ga-labeled tracer. Mice were allowed to recover and roam freely in the cages after injecting the tracer. […] The uptake in each organ/tissue was normalized to the injected dose and expressed as the percentage of the injected dose per gram of tissue (% ID/g).
Biodistribution data for ^68Ga-SB03178, ^68Ga-SB04033, and ^68Ga-FAPI-4 in mice bearing FAP tumor xenografts are presented in Tables 5-7. Data are presented as mean±SD % ID/g.

[2] = HEK293T:hFAP tumor model, 1 h post-injection (n = 4), mean±SD
[3] = HEK293T:hFAP tumor model, 3 h post-injection (n = 2), mean±SD
[4] = HEK293T:hFAP tumor xenograft mice, 1 h post-injection, Table 5, mean±SD

- Biodistribution: Adrenal Glands (U87 xenografts; 1 h post-injection (n = 3)): 1.41 ± 0.38 % ID/g
- Biodistribution: Blood (U87 xenografts; 1 h post-injection (n = 3)): 3.55 ± 0.22 % ID/g
- Biodistribution: Bone (U87 xenografts; 1 h post-injection (n = 3)): 2.51 ± 0.66 % ID/g
- Biodistribution: Brain (U87 xenografts; 1 h post-injection (n = 3)): 0.07 ± 0.01 % ID/g
- Biodistribution: Fat (U87 xenografts; 1 h post-injection (n = 3)): 0.28 ± 0.18 % ID/g
- Biodistribution: Heart (U87 xenografts; 1 h post-injection (n = 3)): 0.80 ± 0.06 % ID/g
- Biodistribution: Kidneys (U87 xenografts; 1 h post-injection (n = 3)): 8.92 ± 1.32 % ID/g
- Biodistribution: Large Intestines (U87 xenografts; 1 h post-injection (n = 3)): 0.44 ± 0.09 % ID/g
- Biodistribution: Liver (U87 xenografts; 1 h post-injection (n = 3)): 1.12 ± 0.08 % ID/g
- Biodistribution: Lungs (U87 xenografts; 1 h post-injection (n = 3)): 1.66 ± 0.10 % ID/g
- Biodistribution: Muscle (U87 xenografts; 1 h post-injection (n = 3)): 0.57 ± 0.21 % ID/g
- Biodistribution: Pancreas (U87 xenografts; 1 h post-injection (n = 3)): 0.65 ± 0.11 % ID/g
- Biodistribution: Small Intestine (U87 xenografts; 1 h post-injection (n = 3)): 1.07 ± 0.03 % ID/g
- Biodistribution: Spleen (U87 xenografts; 1 h post-injection (n = 3)): 0.48 ± 0.08 % ID/g
- Biodistribution: Stomach (U87 xenografts; 1 h post-injection (n = 3)): 0.28 ± 0.12 % ID/g
- Biodistribution: Testes (U87 xenografts; 1 h post-injection (n = 3)): 0.65 ± 0.09 % ID/g
- Biodistribution: Tumor (U87 xenografts; 1 h post-injection (n = 3)): 16.3 ± 1.72 % ID/g
- Biodistribution: Adrenal Glands (U87 xenografts; 3 h post-injection (n = 3)): 0.49 ± 0.30 % ID/g
- Biodistribution: Blood (U87 xenografts; 3 h post-injection (n = 3)): 0.98 ± 0.09 % ID/g
- Biodistribution: Bone (U87 xenografts; 3 h post-injection (n = 3)): 1.11 ± 0.27 % ID/g
- Biodistribution: Brain (U87 xenografts; 3 h post-injection (n = 3)): 0.03 ± 0.00 % ID/g
- Biodistribution: Fat (U87 xenografts; 3 h post-injection (n = 3)): 0.09 ± 0.04 % ID/g
- Biodistribution: Heart (U87 xenografts; 3 h post-injection (n = 3)): 0.28 ± 0.01 % ID/g
- Biodistribution: Kidneys (U87 xenografts; 3 h post-injection (n = 3)): 9.63 ± 1.23 % ID/g
- Biodistribution: Large Intestines (U87 xenografts; 3 h post-injection (n = 3)): 1.15 ± 0.37 % ID/g
- Biodistribution: Liver (U87 xenografts; 3 h post-injection (n = 3)): 0.71 ± 0.05 % ID/g
- Biodistribution: Lungs (U87 xenografts; 3 h post-injection (n = 3)): 0.72 ± 0.11 % ID/g
- Biodistribution: Muscle (U87 xenografts; 3 h post-injection (n = 3)): 0.34 ± 0.07 % ID/g
- Biodistribution: Pancreas (U87 xenografts; 3 h post-injection (n = 3)): 0.27 ± 0.06 % ID/g
- Biodistribution: Small Intestine (U87 xenografts; 3 h post-injection (n = 3)): 0.56 ± 0.16 % ID/g
- Biodistribution: Spleen (U87 xenografts; 3 h post-injection (n = 3)): 0.34 ± 0.04 % ID/g
- Biodistribution: Stomach (U87 xenografts; 3 h post-injection (n = 3)): 0.24 ± 0.02 % ID/g
- Biodistribution: Testes (U87 xenografts; 3 h post-injection (n = 3)): 0.25 ± 0.03 % ID/g
- Biodistribution: Tumor (U87 xenografts; 3 h post-injection (n = 3)): 7.95 ± 0.29 % ID/g
- Uptake in HEK293T:hFAP tumor xenografts, comparison in words [1]: higher uptake
- Biodistribution: Adrenal Glands [1, 2]: 3.01 ± 2.86 % ID/g
- Biodistribution: Blood [1, 2]: 2.59 ± 0.32 % ID/g
- Biodistribution: Bone [1, 2]: 1.89 ± 0.31 % ID/g
- Biodistribution: Brain [1, 2]: 0.06 ± 0.01 % ID/g
- Biodistribution: Fat [1, 2]: 0.22 ± 0.03 % ID/g
- Biodistribution: Heart [1, 2]: 0.71 ± 0.09 % ID/g
- Biodistribution: Kidneys [1, 2]: 9.58 ± 1.21 % ID/g
- Biodistribution: Large Intestines [1, 2]: 0.52 ± 0.21 % ID/g
- Biodistribution: Liver [1, 2]: 1.11 ± 0.15 % ID/g
- Biodistribution: Lungs [1, 2]: 1.66 ± 0.23 % ID/g
- Biodistribution: Muscle [1, 2]: 0.56 ± 0.08 % ID/g
- Biodistribution: Pancreas [1, 2]: 0.57 ± 0.05 % ID/g
- Biodistribution: Small Intestine [1, 2]: 1.04 ± 0.14 % ID/g
- Biodistribution: Spleen [1, 2]: 0.87 ± 0.30 % ID/g
- Biodistribution: Stomach [1, 2]: 0.27 ± 0.19 % ID/g
- Biodistribution: Testes [1, 2]: 0.44 ± 0.08 % ID/g
- Biodistribution: Tumor [1, 2]: 21.0 ± 3.84 % ID/g
- Biodistribution: Adrenal Glands [1, 3]: 0.31 ± 0.06 % ID/g
- Biodistribution: Blood [1, 3]: 1.35 ± 1.18 % ID/g
- Biodistribution: Bone [1, 3]: 0.38 ± 0.07 % ID/g
- Biodistribution: Brain [1, 3]: 0.02 ± 0.00 % ID/g
- Biodistribution: Fat [1, 3]: 0.11 ± 0.10 % ID/g
- Biodistribution: Heart [1, 3]: 0.15 ± 0.06 % ID/g
- Biodistribution: Kidneys [1, 3]: 3.89 ± 1.35 % ID/g
- Biodistribution: Large Intestines [1, 3]: 0.53 ± 0.13 % ID/g
- Biodistribution: Liver [1, 3]: 0.33 ± 0.13 % ID/g
- Biodistribution: Lungs [1, 3]: 0.39 ± 0.08 % ID/g
- Biodistribution: Muscle [1, 3]: 0.13 ± 0.08 % ID/g
- Biodistribution: Pancreas [1, 3]: 0.17 ± 0.05 % ID/g
- Biodistribution: Small Intestine [1, 3]: 0.34 ± 0.21 % ID/g
- Biodistribution: Spleen [1, 3]: 0.24 ± 0.07 % ID/g
- Biodistribution: Stomach [1, 3]: 0.06 ± 0.02 % ID/g
- Biodistribution: Testes [1, 3]: 0.12 ± 0.03 % ID/g
- Biodistribution: Tumor [1, 3]: 6.58 ± 1.98 % ID/g
- Biodistribution: Adrenal Glands [1, 4]: 3.48 ± 3.31 % ID/g
- Biodistribution: Blood [1, 4]: 3.00 ± 0.38 % ID/g
- Biodistribution: Bone [1, 4]: 2.18 ± 0.35 % ID/g
- Biodistribution: Brain [1, 4]: 0.07 ± 0.01 % ID/g
- Biodistribution: Fat [1, 4]: 0.25 ± 0.04 % ID/g
- Biodistribution: Heart [1, 4]: 0.82 ± 0.10 % ID/g
- Biodistribution: Kidneys [1, 4]: 11.1 ± 1.40 % ID/g
- Biodistribution: Liver [1, 4]: 1.29 ± 0.17 % ID/g
- Biodistribution: Lungs [1, 4]: 1.92 ± 0.26 % ID/g
- Biodistribution: Muscle [1, 4]: 0.65 ± 0.09 % ID/g
- Biodistribution: Pancreas [1, 4]: 0.66 ± 0.06 % ID/g
- Biodistribution: Spleen [1, 4]: 1.00 ± 0.35 % ID/g
- Biodistribution: Stomach [1, 4]: 0.32 ± 0.22 % ID/g
- Biodistribution: Testes [1, 4]: 0.51 ± 0.09 % ID/g
- Biodistribution: Tumor [1, 4]: 24.3±4.44 % ID/g
SMILES: N#C[C@@H]1CC(F)(F)CN1C(=O)CNC(=O)c1ccnc2c1cc(OCCCN1CCN(C(=O)CN3CCN(CC(=O)O)CCN(CC(=O)O)CCN(CC(=O)O)CC3)CC1)c1ccccc12 [^68Ga-SB03178, metal not drawn]

- Uptake in HEK293T:hFAP tumor xenografts, comparison in words [1]: weaker uptake
- Biodistribution: Adrenal Glands [1, 2]: 0.65 ± 0.46 % ID/g
- Biodistribution: Blood [1, 2]: 3.62 ± 0.47 % ID/g
- Biodistribution: Bone [1, 2]: 1.52 ± 0.22 % ID/g
- Biodistribution: Brain [1, 2]: 0.08 ± 0.01 % ID/g
- Biodistribution: Fat [1, 2]: 0.30 ± 0.15 % ID/g
- Biodistribution: Heart [1, 2]: 0.95 ± 0.12 % ID/g
- Biodistribution: Kidneys [1, 2]: 10.3 ± 0.55 % ID/g
- Biodistribution: Large Intestines [1, 2]: 0.33 ± 0.03 % ID/g
- Biodistribution: Liver [1, 2]: 1.06 ± 0.11 % ID/g
- Biodistribution: Lungs [1, 2]: 2.13 ± 0.33 % ID/g
- Biodistribution: Muscle [1, 2]: 0.54 ± 0.11 % ID/g
- Biodistribution: Pancreas [1, 2]: 0.62 ± 0.05 % ID/g
- Biodistribution: Small Intestine [1, 2]: 1.53 ± 0.20 % ID/g
- Biodistribution: Spleen [1, 2]: 0.98 ± 0.27 % ID/g
- Biodistribution: Stomach [1, 2]: 0.30 ± 0.10 % ID/g
- Biodistribution: Testes [1, 2]: 0.59 ± 0.07 % ID/g
- Biodistribution: Tumor [1, 2]: 5.95 ± 0.16 % ID/g
SMILES: C[C@@H](NC(=O)c1ccnc2c1cc(OCCCN1CCN(C(=O)CN3CCN(CC(=O)O)CCN(CC(=O)O)CCN(CC(=O)O)CC3)CC1)c1ccccc12)C(=O)N1CCC[C@H]1B(O)O [^68Ga-SB04033, metal not drawn]
